Entries after “also recorded” stand apart in the source; their conditions may differ.
Experiments:
Type in all cases: in vivo
[1] = test system: ATP citrate lyase (ACL); experiment: Immunoblot of phospho-ser454 and total ACL in liver of treated Zucker fatty rats; conditions: ZFR, BT2 vs vehicle
Protocol: (§1) Individually housed, male 12 week-old Zucker fatty rats (ZFR, Charles River Laboratories) maintained on a custom control low fat (LF) diet (A11072001, Research Diets) were used for the BDK inhibition and PPM1K overexpression studies. For the BDK inhibition study, ZFR were administered the small molecule BDK inhibitor 3,6-dichlorobenzo[b]thiophene-2-carboxylic acid (BT2, Sigma) daily at a dose of 20 mg/kg dissolved in 200 ul of sterile dimethylsulfoxide by i.p. injection for 7 days. The control group was administered an equal volume of vehicle each day. On day 6, following an overnight fast, ZFR were subjected to a 1 g/kg i.p. glucose tolerance test (GTT) precisely 1 hr after administration of BT2 (20 mg/kg i.p.) or vehicle. The glucose tolerance test was performed as described (White, et al., 2016). Following the GTT, rats were returned to their normal cages and provided free access to food and water. Indirect calorimetry was performed in a second cohort of BT2 treated rats on day 6 of BT2 administration. […]
(§2) Immunoblotting: Tissue lysates used for immunoblotting were prepared in Cell Lysis Buffer (Cell Signaling Technologies) containing protease inhibitor tablets (Roche), phosphatase inhibitor cocktails 2 and 3 (Sigma), and 10 mM PMSF. […] Immunoblots were developed using a Li-Cor Odyssey CLx and quantified using the Li-Cor software.

[2] = test system: Zucker fatty rats; experiment: Liver triacylglyceride content in treated Zucker fatty rats; conditions: ZFR, BT2 20 mg/kg i.p. daily for one week, vs vehicle
Protocol: (§3) Individually housed, male 12 week-old Zucker fatty rats (ZFR, Charles River Laboratories) maintained on a custom control low fat (LF) diet (A11072001, Research Diets) were used for the BDK inhibition and PPM1K overexpression studies. For the BDK inhibition study, ZFR were administered the small molecule BDK inhibitor 3,6-dichlorobenzo[b]thiophene-2-carboxylic acid (BT2, Sigma) daily at a dose of 20 mg/kg dissolved in 200 ul of sterile dimethylsulfoxide by i.p. injection for 7 days. The control group was administered an equal volume of vehicle each day. […]
(§4) Plasma concentrations of the alpha-keto acids of leucine (α-keto-isocaproate, KIC), isoleucine (α-keto-β-methylvalerate, KMV) and valine (α-keto-isovalerate, KIV) were measured by LC-MS as previously described (Glynn et al., 2015; White et al., 2016). Other plasma analytes were measured on a Beckman DxC600 autoanalyzer, using reagents for lactate, total cholesterol, and triglycerides from Beckman, and non-esterified fatty acids (NEFA) and ketones (total and 3-hydroxybutyrate) from Wako (Richmond, Va.). Glycerol was measured using reagents from TG-B by Roche Diagnostics (Indianapolis, Ind.). Liver triglycerides were quantified using the triglyceride quantification kit from Abcam. Plasma insulin concentrations were measured with a Millipore EMD Rat insulin ELISA kit.

[3] = test system: Zucker fatty rats; experiment: Indirect calorimetry in BT2-treated Zucker fatty rats; conditions: ZFR, BT2 20 mg/kg i.p., day 6, hours following administration
Protocol: as §1, with “administration. Here ad-libitum fed rats were injected with BT2 (20 mg/kg i.p.) or vehicle immediately prior to being placed in an eight-chamber Oxymax system (Columbus Instruments) for seven hours. During their time in the metabolic cages all rats had free access to food and water.” for “administration.”

[4] = test system: Zucker fatty rats; experiment: Circulating BCAA and BCKA in treated Zucker fatty rats; conditions: ZFR, BT2 20 mg/kg i.p. daily for one week, vs vehicle
Protocol: as §3
(§5) Metabolite profiling: Amino acids were measured in plasma and liver samples, and acylcarnitines in liver samples. […]
as §4, with “Plasma insulin concentrations were measured with a Millipore EMD Rat insulin ELISA kit.” left out

[5] = test system: BCKDH e1a; experiment: Immunoblot of phospho-ser293 BCKDH e1a in tissues of treated Zucker fatty rats; conditions: ZFR, BT2 20 mg/kg i.p. daily for one week, vs vehicle
Protocol: as §1, §2

[6] = test system: BCKDH; experiment: Tissue BCKDH activity assay in treated Zucker fatty rats; conditions: ZFR, BT2 20 mg/kg i.p. daily for one week, vs vehicle
Protocol: (§6) Individually housed, male 12 week-old Zucker fatty rats (ZFR, Charles River Laboratories) maintained on a custom control low fat (LF) diet (A11072001, Research Diets) were used for the BDK inhibition and PPM1K overexpression studies. For the BDK inhibition study, ZFR were administered the small molecule BDK inhibitor 3,6-dichlorobenzo[b]thiophene-2-carboxylic acid (BT2, Sigma) daily at a dose of 20 mg/kg dissolved in 200 ul of sterile dimethylsulfoxide by i.p. injection for 7 days. The control group was administered an equal volume of vehicle each day. On day 6, following an overnight fast, ZFR were subjected to a 1 g/kg i.p. glucose tolerance test (GTT) precisely 1 hr after administration of BT2 (20 mg/kg i.p.) or vehicle. The glucose tolerance test was performed as described (White, et al., 2016). Following the GTT, rats were returned to their normal cages and provided free access to food and water. Indirect calorimetry was performed in a second cohort of BT2 treated rats on day 6 of BT2 administration. Here ad-libitum fed rats were injected with BT2 (20 mg/kg i.p.) or vehicle immediately prior to being placed in an eight-chamber Oxymax system (Columbus Instruments) for seven hours. During their time in the metabolic cages all rats had free access to food and water. The next morning, rats were euthanized in the fed state precisely 1 hr following a final dose of BT2 (20 mg/kg i.p.) or vehicle.
For the PPM1K overexpression study, male 12 week-old ZFR were administered two doses of cyclosporine (15 mg/kg i.p., Novartis) prior to adenovirus administration. The first dose of cyclosporine was given 24 hours prior and the second dose was administered immediately prior to tail vein injection of Ad-CMV-PPM1K or Ad-CMV-GFP adenovirus (2×10^12 viral particles per kg). Both viruses use the CMV promoter to drive transgene expression. […]
BCKDH activity assay: Tissue BCKDH activity was measured. […] The ^14CO2 contained in the trap was counted in a Beckman Coulter LS6500 liquid scintillation counter.

[7] = test system: Zucker fatty rats; experiment: 1 g/kg i.p. glucose tolerance test in treated Zucker fatty rats; conditions: ZFR, BT2 20 mg/kg i.p., day 6, 1 g/kg i.p. glucose, vs vehicle
Protocol: as §3, §4

[8] = test system: Zucker fatty rats; experiment: Tissue acylcarnitine profiling in treated Zucker fatty rats; conditions: ZFR, BT2 20 mg/kg i.p. daily for one week, vs vehicle
Protocol: as §6, with “The next morning, rats were euthanized in the fed state precisely 1 hr following a final dose of BT2 (20 mg/kg i.p.) or vehicle.” left out
as §5

SMILES: O=C(O)c1sc2cc(Cl)ccc2c1Cl [BT2, 3,6-dichlorobenzo[b]thiophene-2-carboxylic acid]
- ACL phosphorylation on ser454, immunoblot of liver lysates [1]: markedly less
- abundance of total ACL protein in liver [1]: trend for lower abundance
- hepatic TG levels [2]: significantly lower
- respiratory exchange ratio (RER) [3]: lowered
- circulating BCAA levels [4]: lowered
- circulating branched-chain α-ketoacids (BCKA) ([4]; 20 mg/kg): more dramatic lowering; also recorded: potently lowers
- BCKDH phosphorylation in skeletal muscle [5]: not associated with a detectable change
- BCKDH phosphorylation on serine 293 of the e1a subunit in liver and heart [5]: lower levels
- BCKDH enzyme activity in heart [6]: increased
- BCKDH enzyme activity in liver [6]: increased
- BCKDH enzyme activity in skeletal muscle [6]: small increment
- glucose excursion during ipGTT [7]: significantly smaller
- insulin excursion during ipGTT [7]: significantly smaller
- even chain acyl-carnitines in liver [8]: increases
- even chain acyl-carnitines in skeletal muscle [8]: but not in skeletal muscle

Reference: US20210267939A1, “COMPOSITIONS AND METHODS FOR TREATING NAFLD/NASH AND RELATED DISEASE PHENOTYPES” (priority 2018, published 2021)
